Data taken from PubChem BioAssay AID248 (DTP/NCI, 2004).
Toxic doses and inconclusive results are not listed. No stated cut-off is given here; in the data, active means T/C of 150% or more; inactive means T/C below 125%.

Tested on: L1210 leukemia ip in BDF1 mice, survival T/C
Assay: NCI In Vivo Anticancer Drug Screen. Data for tumor model L1210 Leukemia (intraperitoneal) in B6D2F1 (BDF1) mice
Conditions: higher = longer survival
Method in brief: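 Transplantable tumor model; survival measured in treated vs vehicle control mice. Value = treated/control.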

[1] = endpoint: mean survival time, dose: 100.0 mg/kg/injection, schedule: Q01DX009 (ip), vehicle: Klucel (hydroxypropylcellulose) (HPC)
[2] = endpoint: mean survival time, dose: 200.0 mg/kg/injection, schedule: Q01DX009 (ip), vehicle: Klucel (hydroxypropylcellulose) (HPC)
[3] = endpoint: mean survival time, dose: 400.0 mg/kg/injection, schedule: Q01DX009 (ip), vehicle: Klucel (hydroxypropylcellulose) (HPC)
[4] = endpoint: mean survival time, dose: 50.0 mg/kg/injection, schedule: Q01DX009 (ip), vehicle: Klucel (hydroxypropylcellulose) (HPC)
[5] = endpoint: mean survival time, dose: 100.0 mg/kg/injection, schedule: Q04DX003 (ip), vehicle: Klucel (hydroxypropylcellulose) (HPC)
[6] = endpoint: mean survival time, dose: 200.0 mg/kg/injection, schedule: Q04DX003 (ip), vehicle: Klucel (hydroxypropylcellulose) (HPC)
[7] = endpoint: mean survival time, dose: 400.0 mg/kg/injection, schedule: Q04DX003 (ip), vehicle: Klucel (hydroxypropylcellulose) (HPC)
[8] = endpoint: mean survival time, dose: 100.0 mg/kg/injection, schedule: Q01DX009 (ip), vehicle: saline
[9] = endpoint: mean survival time, dose: 100.0 mg/kg/injection, schedule: Q04DX003 (ip), vehicle: saline with Tween-80
[10] = endpoint: mean survival time, dose: 100.0 mg/kg/injection, schedule: Q04DX003 (ip), vehicle: saline
[11] = endpoint: mean survival time, dose: 200.0 mg/kg/injection, schedule: Q01DX009 (ip), vehicle: saline
[12] = endpoint: mean survival time, dose: 200.0 mg/kg/injection, schedule: Q04DX003 (ip), vehicle: saline
[13] = endpoint: mean survival time, dose: 400.0 mg/kg/injection, schedule: Q04DX003 (ip), vehicle: saline
[14] = endpoint: mean survival time, dose: 200.0 mg/kg/injection, schedule: Q04DX003 (ip), vehicle: saline with Tween-80
[15] = endpoint: mean survival time, dose: 400.0 mg/kg/injection, schedule: Q01DX009 (ip), vehicle: saline
[16] = endpoint: mean survival time, dose: 400.0 mg/kg/injection, schedule: Q04DX003 (ip), vehicle: saline with Tween-80

Measured: T/C

Clc1ccc(C2=CC(c3ccccc3)C3CC23)cc1 (centres undefined)
inactive: endpoint: mean survival time, dose: 100.0 mg/kg/injection, schedule: Q01DX001 (ip), vehicle: saline with Tween-80 92 % of control | endpoint: mean survival time, dose: 200.0 mg/kg/injection, schedule: Q01DX001 (ip), vehicle: saline with Tween-80 94 % of control | endpoint: mean survival time, dose: 400.0 mg/kg/injection, schedule: Q01DX001 (ip), vehicle: saline with Tween-80 89 % of control

Nc1nc(N)nc(-c2ccccc2NN=Nc2ccccc2[N+](=O)[O-])n1
inactive: [1] 103 % of control | [2] 97 % of control | [3] 100 % of control

CCOC(=O)c1cnc2c(ccc3cc(OC)ccc32)c1Cl
inactive: [4] 101 % of control | [1] 97 % of control | [2] 101 % of control

CCOc1ccc(OCC)c2c1C(=O)c1ccccc1C2=O
inactive: [1] 97 % of control | [5] 95 % of control | [2] 100 % of control | [6] 100 % of control | [3] 97 % of control | [7] 97 % of control

CC(=O)Nc1cccc2cccnc12
inactive: endpoint: mean survival time, dose: 12.5 mg/kg/injection, schedule: Q01DX009 (ip), vehicle: saline with Tween-80 92 % of control | endpoint: mean survival time, dose: 25.0 mg/kg/injection, schedule: Q01DX009 (ip), vehicle: saline with Tween-80 95 % of control | endpoint: mean survival time, dose: 50.0 mg/kg/injection, schedule: Q01DX009 (ip), vehicle: saline with Tween-80 90 % of control | endpoint: mean survival time, dose: 75.0 mg/kg/injection, schedule: Q01DX001 (ip), vehicle: other 104 % of control | endpoint: mean survival time, dose: 75.0 mg/kg/injection, schedule: Q01DX009 (ip), vehicle: other 98 % of control | endpoint: mean survival time, dose: 75.0 mg/kg/injection, schedule: Q01DX009 (ip), vehicle: saline with Tween-80 87 % of control | [1] 90 % of control | [8] 93 % of control | [9] 107 % of control | [10] 108 % of control | endpoint: mean survival time, dose: 150.0 mg/kg/injection, schedule: Q01DX001 (ip), vehicle: other 103 % of control | [2] 93 % of control | [11] 95 % of control | [12] 106 % of control | endpoint: mean survival time, dose: 300.0 mg/kg/injection, schedule: Q01DX001 (ip), vehicle: other 94 % of control | [13] 89 % of control

NC(N)=N/N=C\CC(O)CO (centres undefined)
inactive: endpoint: mean survival time, dose: 15.0 mg/kg/injection, schedule: Q01DX Z (ip), vehicle: methylcellulose (MC) 100 % of control | endpoint: mean survival time, dose: 30.0 mg/kg/injection, schedule: Q01DX Z (ip), vehicle: methylcellulose (MC) 103 % of control | endpoint: mean survival time, dose: 60.0 mg/kg/injection, schedule: Q01DX Z (ip), vehicle: methylcellulose (MC) 100 % of control | endpoint: mean survival time, dose: 60.0 mg/kg/injection, schedule: Q01DX Z (oral), vehicle: methylcellulose (MC) 97 % of control | endpoint: mean survival time, dose: 120.0 mg/kg/injection, schedule: Q01DX Z (ip), vehicle: methylcellulose (MC) 103 % of control | endpoint: mean survival time, dose: 120.0 mg/kg/injection, schedule: Q01DX Z (oral), vehicle: methylcellulose (MC) 94 % of control | endpoint: mean survival time, dose: 240.0 mg/kg/injection, schedule: Q01DX Z (oral), vehicle: methylcellulose (MC) 88 % of control | endpoint: mean survival time, dose: 480.0 mg/kg/injection, schedule: Q01DX Z (oral), vehicle: methylcellulose (MC) 86 % of control

Cc1ccc(S(=O)(=O)NC(Cc2ccccc2)C(=O)CCl)cc1 (centres undefined)
inactive: [9] 92 % of control | [14] 92 % of control

CC1C(O)C(O)CC2COCC21 (centres undefined)
inactive: endpoint: mean survival time, dose: 100.0 mg/kg/injection, schedule: Q01DX001 (ip), vehicle: saline sonified 91 % of control | endpoint: mean survival time, dose: 200.0 mg/kg/injection, schedule: Q01DX001 (ip), vehicle: saline sonified 107 % of control | endpoint: mean survival time, dose: 400.0 mg/kg/injection, schedule: Q01DX001 (ip), vehicle: saline sonified 113 % of control

COCCOCC1CO1 (centres undefined)
inactive: [8] 100 % of control | [11] 105 % of control | [15] 100 % of control

CC(=O)CCCN(CCO)CCO
inactive: [8] 88 % of control | [10] 96 % of control | [11] 92 % of control | [12] 96 % of control | [15] 96 % of control | [13] 102 % of control

NS(=O)(=O)c1cc2c(cc1Cl)NCNS2(=O)=O
inactive: endpoint: median survival time, dose: 125.0 mg/kg/injection, schedule: Q12HX016 (oral), vehicle: Klucel (hydroxypropylcellulose) (HPC) 95 % of control | endpoint: median survival time, dose: 125.0 mg/kg/injection, schedule: Q12HX022 (oral), vehicle: Klucel (hydroxypropylcellulose) (HPC) 94 % of control | endpoint: median survival time, dose: 250.0 mg/kg/injection, schedule: Q12HX016 (oral), vehicle: Klucel (hydroxypropylcellulose) (HPC) 93 % of control | endpoint: median survival time, dose: 250.0 mg/kg/injection, schedule: Q12HX022 (oral), vehicle: Klucel (hydroxypropylcellulose) (HPC) 98 % of control | endpoint: median survival time, dose: 500.0 mg/kg/injection, schedule: Q12HX016 (oral), vehicle: Klucel (hydroxypropylcellulose) (HPC) 93 % of control | endpoint: median survival time, dose: 500.0 mg/kg/injection, schedule: Q12HX022 (oral), vehicle: Klucel (hydroxypropylcellulose) (HPC) 98 % of control

Cc1c2cnccc2c(C)c2c1c1ccccc1n2CCCCCC#N
inactive: [5] 100 % of control | [6] 97 % of control | [7] 100 % of control

O=C1OC(c2cccc(Cl)c2)=N/C1=C\c1ccc(Cl)cc1
inactive: endpoint: mean survival time, dose: 100.0 mg/kg/injection, schedule: Q04DX002 (ip), vehicle: Klucel (hydroxypropylcellulose) (HPC) 100 % of control | endpoint: mean survival time, dose: 200.0 mg/kg/injection, schedule: Q04DX002 (ip), vehicle: Klucel (hydroxypropylcellulose) (HPC) 92 % of control | endpoint: mean survival time, dose: 400.0 mg/kg/injection, schedule: Q04DX002 (ip), vehicle: Klucel (hydroxypropylcellulose) (HPC) 92 % of control

c1cc(C2CCCCC2)ccc1-c1ccc(C2CCCCC2)cc1
inactive: endpoint: mean survival time, dose: 100.0 mg/kg/injection, schedule: Q01DX009 (ip), vehicle: saline with Tween-80 94 % of control | [9] 98 % of control | endpoint: mean survival time, dose: 200.0 mg/kg/injection, schedule: Q01DX009 (ip), vehicle: saline with Tween-80 94 % of control | [14] 101 % of control | endpoint: mean survival time, dose: 400.0 mg/kg/injection, schedule: Q01DX009 (ip), vehicle: saline with Tween-80 97 % of control | [16] 90 % of control

Cc1ccc(S(=O)(=O)OC2CCC(C(C)(C)C)CC2Cl)cc1 (centres undefined)
inactive: [1] 98 % of control | [10] 98 % of control | [2] 108 % of control | [12] 98 % of control | [3] 98 % of control | [13] 94 % of control

O=C1C(Br)=CC(Br)(Br)C=C1Br
inactive: [9] 92 % of control | [14] 95 % of control | [16] 93 % of control

CC(=O)Oc1ccc(C)cc1
inactive: [4] 94 % of control | [1] 110 % of control | [5] 100 % of control | [2] 107 % of control | [6] 104 % of control

CC1C(=O)C(Br)C2CC(O)CCC2(C)C1C (centres undefined)
inactive: endpoint: mean survival time, dose: 75.0 mg/kg/injection, schedule: Q01DX001 (ip), vehicle: saline 100 % of control | endpoint: mean survival time, dose: 150.0 mg/kg/injection, schedule: Q01DX001 (ip), vehicle: saline 94 % of control | endpoint: mean survival time, dose: 300.0 mg/kg/injection, schedule: Q01DX001 (ip), vehicle: saline 89 % of control

O=[N+]([O-])c1cc(Br)ccc1O
inactive: [10] 100 % of control | [12] 89 % of control

CN(C)S(=O)(=O)c1ccc(CCc2ccccc2)cc1
inactive: endpoint: mean survival time, dose: 50.0 mg/kg/injection, schedule: Q01DX001 (ip), vehicle: saline 101 % of control | endpoint: mean survival time, dose: 100.0 mg/kg/injection, schedule: Q01DX001 (ip), vehicle: saline 95 % of control | endpoint: mean survival time, dose: 200.0 mg/kg/injection, schedule: Q01DX001 (ip), vehicle: saline 95 % of control | endpoint: mean survival time, dose: 400.0 mg/kg/injection, schedule: Q01DX001 (ip), vehicle: saline 95 % of control
